From patent US20200037609A1, “HERBICIDAL COMPOSITIONS AND METHODS OF USE THEREOF” (The Regents of the University of California, priority 2017, published 2020)
pIC50: −log10 of the molar value. Entries after “also recorded” stand apart in the source; their conditions may differ.

What was measured:
[1] = test system: S. cerevisiae ΔILV3 expressing AstD; assay: Growth inhibition of S. cerevisiae ΔILV3 in ILV dropout media; assay type: cell-based; details: Saccharomyces cerevisiae, read-out: IC50 of growth inhibition, yeast expressing AstD
Procedure: Growth inhibition assay of S. cerevisiae on plates or in the tubes. S. cerevisiae was grown in isoleucine, leucine and valine (ILV) dropout media (20 g/L glucose, 0.67 g/L Difco™ Yeast Nitrogen Base w/o amino acids, 18 mg/L adenine, arginine 76 mg/L, asparagine 76 mg/L, aspartic acid 76 mg/L, glutamic acid 76 mg/L, histidine 76 mg/L, lysine 76 mg/L, methionine 76 mg/L, phenylalanine 76 mg/L, serine 76 mg/L, threonine 76 mg/L, tryptophan 76 mg/L, tyrosine 76 mg/L) to test growth inhibition of AA on S. cerevisiae. S. cerevisiae was incubated at 28° C. until OD600 of the control strain without AA treatment reached about 0.8. The ratio of yeast OD600 in media with AA treatment to yeast OD600 in media without AA was calculated as the percentage of growth inhibition. The inhibition curve was plotted as percentage of inhibition versus AA concentrations. […] The growth curves of TY05, TY06 and TY07 were also plotted (FIG. 29A-29D). The OD600 was recorded for every 20 minutes over a total of 50 h. The inhibition percentage can be calculated by following equation: […]

[2] = test system: Saccharomyces cerevisiae; assay: Yeast growth inhibition assay on plates; assay type: cell-based; details: 250 μM aspterric acid
Procedure: Saccharomyces cerevisiae was plated onto dropout media that lacked isoleucine, leucine, and valine, either with or without 250 μM aspterric acid. Saccharomyces cerevisiae was also plated onto rich media that contained all amino acids along with 250 μM aspterric acid. Plates were incubated at 30° C.

[3] = test system: Streptomyces sp. Mg1; assay: Streptomyces growth inhibition assay; assay type: cell-based; details: 250 μM aspterric acid
Procedure: Streptomyces sp. Mg1 was plated onto MS media either with or without 250 μM aspterric acid. Plates were incubated at 28° C.

[4] = test system: Arabidopsis thaliana; assay: Agar-based plant growth inhibition assay on MS media; assay type: in vivo; details: for growth of A. thaliana on MS media: 50 μM aspterric acid
Procedure: Agar-based growth inhibition assays were carried out on MS media (4.33 g Murashige and Skoog basal medium, 20 g sucrose, and 10 g Agar per liter MS media, pH was adjusted to 5.7 using KOH). Aspterric acid at a final concentration of 50 μM was included in the experimental media. DMSO at final concentration of 1% was used to increase the solubility of aspterric acid. The control MS media contained the same amount of DMSO, but no aspterric acid. Sterilized Arabidopsis thaliana seeds were plated on MS media. After 2 days of cold treatment at 4° C. in the dark, plates were transferred to standard growing condition (16 hour light and 8 hour dark at 22° C.) to geminate. After germination on day 4, the seedlings were transferred to MS media containing 50 μM aspterric acid. MS media containing only DMSO was used as a control. Images were taken at day 8 and day 12 to assay growth inhibition activity of aspterric acid on Arabidopsis thaliana.
Growth inhibition assay of plants on plates or in the tubes. MS (2.16 g/L Murashige and Skoog basal medium, 8 g/L sucrose, 8 g/L agar) media was used to test the growth inhibition of AA on A. thaliana, Solanum lycopersicum, and Zea mays. A. thaliana, S. lycopersicum, G. max and Z. mays were grown under long day condition (16/8 h light/dark) using cool-white fluorescence bulbs as the light resource at 23° C. AA was dissolved in ethanol and added to the media before inoculating strains or growing plants. The media of control treatment contains the same amount of ethanol, but without AA.

[5] = test system: soil-grown Arabidopsis thaliana Col-0 ecotype plants; assay: Herbicidal spray experiments with 1 mM aspterric acid in solvent formulations; assay type: in vivo
Procedure: Aspterric acid was dissolved in the following solvent formulations at a final concentration of 1 mM: (1) 0.5% silwet L-77 and 1% DMSO (floral dip formulation), (2) 2% EtOH, 1% corn oil, and 0.1% tween 80, and (3) 2% EtOH and 0.05% Finale (Finale formulation, contains a final concentration of […]).
For spray treatments with aspterric acid in the various formulations described above, Arabidopsis thaliana Col-0 ecotype plants were grown in soil under long day conditions (16 hours of light followed by 8 hours of dark per day) at 23° C. using cool-white fluorescence bulbs as the light source. Ten-day old seedlings were sprayed with 1 mM aspterric acid dissolved in formulation (1), (2), or (3) as described above. Spray application with the various respective formulations was repeated every 2 days.

[6] = test system: Arabidopsis thaliana Col-0 flowers; assay: Cross experiment, AA as chemical hybridization agent; assay type: in vivo; details: 250 μM AA; for offspring obtained: listed as AA
Procedure: Flowers of Arabidopsis thaliana Col-0 plants were treated with aspterric acid. The treated flowers that were missing all six fertile stamens were selected as the female parent in a cross with a male parent of known genetic identity. Non-treated Arabidopsis plants containing a BASTA resistant gene were used as male parent to donate pollen to the plants where the flowers were missing all six fertile stamens. 2-week old F1 progeny resulting from the cross were treated with Finale (11.3% Glufosinate-ammonium) at a 1:2000 dilution.
To make male sterile A. thaliana, AA was added to chemical hybridization agent (CHA) formulation (250 μM AA, 2% ethanol, 0.1% Tween-80, 1% corn oil in water), which has less inhibition effect on the growth of A. thaliana. Flowers of the AA treated Col-0 were selected as the female parent. […] 2-week old F1 progeny resulting from the cross were treated by Finale (11.3% glufosinate-ammonium) at 1:2000 dilution.

[7] = test system: pollen development in Arabidopsis thaliana; assay: Pollen development in AA treated plants; assay type: in vivo; details: treated before flowering; listed as AA
[8] = female AA treated wild type x male un-treated glufosinate resistant plant

Q: How did the pIC50 [1] turn out when `CC(C)=C1CC[C@]23CO[C@H](C2)[C@@](O)(C(=O)O)CC[C@@H]13` [aspterric acid] was run?
A: The pIC50 was ~3.70.

Q: And the “growth of S. cerevisiae on media lacking isoleucine, leucine and valine” value [2]?
A: The value was “inhibited the growth”.

Q: And the “growth of S. cerevisiae on rich media” value ([2]; all amino acids present)?
A: The value was “grew normally”.

Q: What about the “growth of Streptomyces on MS media” value [3] of the same compound?
A: The value was “inhibited the growth”.

Q: What about the “growth of A. thaliana on MS media” value [4] of the same compound?
A: The value was “significant vegetative growth inhibition”.

Q: What about the “growth of A. thaliana on MS media” value ([4]; listed as AA) of the same compound?
A: Its value is “potently inhibit”.

Q: And the “growth of wild-type A. thaliana on media” value ([4]; 100 μM AA)?
A: Its value is “strongly inhibited”.

Q: And the “growth after spray, formulation (1)” value ([5]; 1 mM in 0.5% silwet L-77 and 1% DMSO, every 2 days, 18 days after first spray)?
A: The value was “showed growth inhibition”.

Q: And the “growth after spray, formulation (3)” value ([5]; 1 mM in 2% EtOH and 0.05% Finale, glufosinate-resistant plants, 18 days after first spray)?
A: The value was “significant growth inhibition”.

Q: What about the “growth after spray, formulation (2)” value ([5]; 1 mM in 2% EtOH, 1% corn oil, 0.1% tween 80, every 2 days, 17 days after first spray) of the same compound?
A: The value was “showed growth inhibition”.

Q: And the offspring obtained ([6]; female AA treated wild type x male AA treated glufosinate resistant plant)?
A: Its offspring obtained is “No offspring was obtained and No”.

Q: And the inherit resistance [6, 8]?
A: Its inherit resistance is “Yes”.

Q: What about the offspring obtained [6, 8] of the same compound?
A: Its offspring obtained is “Offspring was obtained and Yes”.

Q: And the “pollen formation in AA treated A. thaliana” value [7]?
A: The value was “failed to form normal pollen; also recorded: depleted of healthy and mature pollen”.
